B1: bovine liver catalase: bovine liver catalase enzyme used as reference (protein, UniProt P00432 2-527, looked up)
Catalase: ADNRDPASDQMKHWKEQRAAQKPDVLTTGGGNPVGDKLNSLTVGPRGPLLVQDVVFTDEMAHFDRERIPERVVHAKGAGAFGYFEVTHDITRYSKAKVFEHIGKRTPIAVRFSTVAGESGSADTVRDPRGFAVKFYTEDGNWDLVGNNTPIFFIRDALLFPSFIHSQKRNPQTHLKDPDMVWDFWSLRPESLHQVSFLFSDRGIPDGHRHMNGYGSHTFKLVNANGEAVYCKFHYKTDQGIKNLSVEDAARLAHEDPDYGLRDLFNAIATGNYPSWTLYIQVMTFSEAEIFPFNPFDLTKVWPHGDYPLIPVGKLVLNRNPVNYFAEVEQLAFDPSNMPPGIEPSPDKMLQGRLFAYPDTHRHRLGPNYLQIPVNCPYRARVANYQRDGPMCMMDNQGGAPNYYPNSFSAPEHQPSALEHRTHFSGDVQRFNSANDDNVTQVRTFYLKVLNEEQRKRLCENIAGHLKDAQLFIQKKAVKNFSDVHPEYGSRIQALLDKYNEEKPKNAVHTYVQHGSHLSAREKANL

Legend:
[1] = test system: Human dermal fibroblasts (HF cells); assay: Protection against t-butyl hydroperoxide toxicity in human fibroblasts (XTT); type: cell-based; conditions: 80 μM with 0.5 mM t-BHP
Protocol: (§1) Human dermal fibroblasts (HF cells) were obtained from the American type tissue Culture Collection at passage 1 and cultured and propagated in a medium (HF medium) consisting of Dulbecco's Modified Eagle's Medium with 4.5 g/l D-glucose, 10% calf serum 4 mM glutamine, 50 units/ml penicillin, and 50 μg/ml streptomycin in a 37° C. humidified incubator equilibrated with 5% CO2. Cells were used at passages 5 or 6 for experiments. For cell protection assays, HF cells were seeded at a density of about 15,000 cells per cm2 onto 96-well culture plates and allowed to grow to confluence. […] After 2 hr., the absorbance at 490 nm was measured in a BioRad (Richmond, Calif.) Model 3550 plate-reader, using a reference wavelength of 655 nm. […] Absorbance measurements for blank wells, containing HF medium and XTT reagent but no cells, were also determined. […] Fresh HF medium was then added and cell viability assessed using the XTT reagent as described above. […]
Cell protection assays were performed as described under Experimental Procedures with salen-manganese complexes administered at the indicated concentrations and t-BHP at 0.5 mM. Cell viability was assessed using the XTT reagent as described and is expressed as the absorbance at 490 nm uncorrected for blank. […]

[2] = test system: Human dermal fibroblasts (HF cells); assay: Protection against glucose and glucose oxidase toxicity in human fibroblasts (XTT); type: cell-based; conditions: glucose oxidase 0.019 units/ml
Protocol: Cytotoxicity studies were performed as described under Experimental procedures. Absorbance values, corrected by subtracting the blank signal of 0.17 OD units, are the means±sd of triplicate samples. Control cells (open circle) received no glucose oxidase. Catalase-treated (solid circle) cells received glucose oxidase (0.019) units/ml) as well as bovine liver catalase (290 units/ml). Other samples received the same dose of glucose oxidase and the indicated concentrations of salen manganese complex.
as §1, with “experiments.” for “experiments. For cell protection assays, HF cells were seeded at a density of about 15,000 cells per cm2 onto 96-well culture plates and allowed to grow to confluence.”

[3] = Peroxidase activity, H2O2-dependent oxidation of ABTS; type: biochemical; conditions: for peroxidase activity (relative, in words): 10 μM salen manganese complex, 0.2 mM H2O2
Protocol: (§2) Peroxidase activity was assayed by monitoring the hydrogen peroxide-dependent oxidation of 2,2′-azino-bis(3-ethylbenzthiazoline-6) sulfonic acid (ABTS) spectrophotometrically. Standard assay mixtures consisted of 50 mM sodium phosphate, pH 8.1, 0.9% sodium chloride, 0.5 mM ABTS, and H2O2 and salen manganese complex as indicated. Where indicated, 50 mM sodium phosphate buffers of pH 6.0 or pH 7.1 were substituted. Assays were conducted at 27±0.2° C. ABTS oxidation was monitored at 740 or 500 nm to eliminate interference by the salen manganese complexes, many of which absorb in the vicinity of the λmax of oxidized ABTS, and to avoid absorbance values that exceeded the linear range of the spectrophotometer. The amount of oxidized ABTS was estimated using an Δε740 of 20,300 M^−1cm^−1 or an Δε500 of 3400 M^−1cm^−1 calculated based upon the published molar extinction coefficient oat 405 nm (36,800).
Compounds were assayed for SOD as described under Experimental procedures, using cytochrome C as acceptor. The concentration of each compound showing half-maximal activity in this assay is presented. Catalase and peroxidase activities were conducted as described under Experimental Procedures, with 10 μM salen manganese complex. The H2O2 concentration was 10 mM and 0.2 mM in the catalase and peroxidase assays, respectively. Where denoted, “nd” means that the assay was not performed on this compound.
Catalase and peroxidase activities were assayed as described in Example 2. Catalase assays contained 10 μM salen-manganese complex and 10 mM hydrogen peroxide. Peroxidase assays contained 10 μM salen-manganese complex and 0.2 mM hydrogen peroxide. Glucose-glucose oxidase toxicity assays were performed using human dermal fibroblasts as described in Example 2.

[4] = Catalase activity, polarographic oxygen electrode; type: biochemical; conditions: 10 μM salen manganese complex, 10 mM H2O2
Protocol: Catalase activity was assayed by monitoring the conversion of H2O2 to oxygen using a Clark-type polarographic oxygen electrode. The apparatus consisted of a Mini Clark Style electrode, a 600 μl Oxygen Uptake Chamber, and a Chemical Microsensor system, all obtained from Diamond General Corporation (Ann Arbor, Mich.). The electrode was calibrated by immersion in nitrogen- or air-equilibrated buffers using a Dual Chamber Calibration Cell (Diamond General, Corp.). Catalase reaction mixtures consisted of 50 mM sodium phosphate, pH 8.1,0.9% sodium chloride, and salen manganese complex and H2O2 at the indicated concentrations. The temperature of the water-jacketed reaction chamber, as well as the calibration buffers, was maintained at 25±0.1° C. Data were collected at 1 sec intervals and stored on a MacIntosh II computer using data acquisition hardware and software by Strawberry Tree, Inc. (Sunnyvale, Calif.). Dissolved oxygen concentrations were calculated as described previously (Del Rio et al. (1977) Anal. Biochem. 80: 409) based on a value of 2.5×10^−4 M oxygen for air-saturated buffer at 25° C. Linearity of the dissolved oxygen measurements within the experimental range was continued by determining the amount of oxygen generated from known quantities of H2O2 during exhaustive treatment with bovine liver catalase. Stock solutions of H2O2 were prepared by diluting a commercial 30% H2O2 solution in water and the H2O2 concentrations in these stocks were determined by absorbance at 240 nm, using a molar extinction coefficient of 44 (Stadtman, E R. et al. (1990) Proc. Natl. Acad. Sci. USA 87: 384). […] In the absence of salen manganese complex, H2O2 alone typically produced an early, relatively slow increase in signal. The slope of this increased signal was not proportional to H2O2 concentration (for example in one experiment, 1 and 10 Mm H2O2 yielded apparent rates of 12 and 14 μM oxygen per min, respectively) and may be due to an electrode artifact. […] Where presented, initial rates were calculated by determining the slope of the linear portion of time dependent plots of oxygen generation, usually comprising the first five seconds of the reaction. Unless otherwise indicated, these were corrected by subtracting the rate obtained with H2O2 alone. Where presented, endpoint oxygen generated was calculated from time-dependent plots, such as those shown in FIG. 14, as the difference between the baseline oxygen concentration immediately prior to-substrate addition and the maximal oxygen concentration achieved during the course of the reaction. All reactions subjected to these calculations were run for a sufficient time to ensure that oxygen generation had ceased.
Compounds were assayed for SOD as described under Experimental procedures, using cytochrome C as acceptor. […]

Hippocampal slices = assay: Anoxia in hippocampal slices, EPSP recovery; type: cell-based, Sprague-Dawley rats; conditions: C7 50 μM
Excerpt: Anoxia in hippocampal slices. […] A glass recording micropipet was positioned in CA1 stratum radiatum to record excitatory postsynaptic potential (EPSPs) generated by electrical stimulation of the Schaffer-commissural pathway by a bipolar stimulation electrode at a frequency of 0.033 Hz. During anoxic episodes, the oxygen supply was replaced with 100% N2 gas. N2 was supplied for 90 seconds following electrical silence after which O2 was reintroduced. Recovery of EPSPs (both slope and amplitude) was recorded for 50 minutes, at which time the final viability of the slices was determined, with viability being defined as the ability of the slice to generate a 3 mV EPSP.

[5] = Peroxidase activity toward t-BHP, ABTS oxidation; type: biochemical; conditions: 1 mM t-BHP versus same concentration of H2O2
Protocol: as §2
(In comparison, horseradish peroxidase utilized t-BHP with an ABTS oxidation rate that was about 5.4% of the rate with H2O2).

Molecule | protection against glucose and glucose oxidase (overall, in words) [2] | peroxidase activity (relative, in words) [3] | catalase activity, initial rate (relative, in words) [4] | further results
CC(=O)[O][Mn]1[O]c2ccccc2C=NCCN=Cc2ccccc2[O]1 [Compound C31] | about equally as effective as C7 |  |  | reduced viability at 80 μM relative to 40 μM together with t-BHP [1]: possible synergistic toxicity with t-BHP
COc1cccc2c1[O][Mn]([O]C(C)=O)[O]c1c(cccc1OC)C=NCCN=C2 [Compound C32] | more protective than C43 | fastest peroxidases | about twice as fast as C7 | catalase endpoint: total oxygen generated / turnovers completed before the reaction ceased (relative, in words) [4]: almost twice the amount of oxygen as C7; catalase turnovers before the reaction ceased [4]: about 16 turnovers
COc1cccc2c1[O][Mn]([O]C(C)=O)[O]c1c(cccc1OC)C=NCCCN=C2 [Compound C51] |  | reduced catalase and peroxidase activities | reduced catalase and peroxidase activities | 
Purified bovine SOD: purified bovine superoxide dismutase |  |  |  | protection against anoxia-induced decrease in synaptic response in CA1 (EPSP slope and amplitude) (Hippocampal slices): no protection
horseradish peroxidase |  |  |  | ABTS oxidation rate with t-BHP as percent of the rate with H2O2 [5]: about 5.4%
B1 |  |  |  | reduction of the initial rate of ABTS oxidation by C7 ([3]; 29 units/ml bovine liver catalase added, 10 mM H2O2): 55%
